experiment: Inhibition of DC-SIGN extracellular domain (unknown origin) expressed in Escherichia coli DE3(BL21) incubated for 1 hrs in presence of Man-Fl-BSA by high-throughput fluorescence-based assay

In order of rising IC50:
1. CCC(=O)Nc1nc(C)c(-c2csc(Nc3ccc(N(C)C)cc3)n2)s1  1.6 µM
2. NOC(=O)c1ccc(CCCC2Nc3ccc(C(=O)N4CCN(c5ncccn5)CC4)cc3NC2=O)cc1 (centres undefined)  2.6 µM
3. COc1ccccc1N1CCN(C(=O)c2ccc3c(c2)NC(=O)C(CCCc2ccccc2C)N3)CC1 (centres undefined)  4.4 µM
4. Cc1ccc(N(C)S(=O)(=O)c2ccc3[nH]cc(C(=O)N4CCN(c5ccccc5)CC4)c(=O)c3c2)cc1C  6.1 µM
5. O=C1Nc2cc(C(=O)N3CCN(c4ccccc4)CC3)ccc2NC1CSCc1c(F)cccc1Cl (centres undefined)  7.3 µM
6. CN1CCN(c2ccc(/C=C3\Sc4ccccc4C3=O)cc2[N+](=O)[O-])CC1  10 µM
7. COC(=O)c1ccc(-c2ccc(/C=C3\C(=O)N(c4ccc(S(N)(=O)=O)cc4)N=C3C(F)(F)F)o2)cc1  32 µM

experiment: Inhibition of DC-SIGN extracellular domain (unknown origin) by SPR analysis

In order of falling Kd:
1. N=c1c(C(=O)NCCc2cn3c(n2)SCC3)cnc2sccn12  400 µM
2. O=C(NCCc1c[nH]c2ccccc12)c1c(O)nc2sccn2c1=O  180 µM
